# Results as given in patent publication US8268862B2, “Sirtuin modulating compounds” (Sirtris Pharmaceuticals, Inc., priority 2007, dated 2012).
# Molecular target: T1, SIRT1 (Homo sapiens, UniProt Q96EB6)
# T1 sequence (Q96EB6 1-747): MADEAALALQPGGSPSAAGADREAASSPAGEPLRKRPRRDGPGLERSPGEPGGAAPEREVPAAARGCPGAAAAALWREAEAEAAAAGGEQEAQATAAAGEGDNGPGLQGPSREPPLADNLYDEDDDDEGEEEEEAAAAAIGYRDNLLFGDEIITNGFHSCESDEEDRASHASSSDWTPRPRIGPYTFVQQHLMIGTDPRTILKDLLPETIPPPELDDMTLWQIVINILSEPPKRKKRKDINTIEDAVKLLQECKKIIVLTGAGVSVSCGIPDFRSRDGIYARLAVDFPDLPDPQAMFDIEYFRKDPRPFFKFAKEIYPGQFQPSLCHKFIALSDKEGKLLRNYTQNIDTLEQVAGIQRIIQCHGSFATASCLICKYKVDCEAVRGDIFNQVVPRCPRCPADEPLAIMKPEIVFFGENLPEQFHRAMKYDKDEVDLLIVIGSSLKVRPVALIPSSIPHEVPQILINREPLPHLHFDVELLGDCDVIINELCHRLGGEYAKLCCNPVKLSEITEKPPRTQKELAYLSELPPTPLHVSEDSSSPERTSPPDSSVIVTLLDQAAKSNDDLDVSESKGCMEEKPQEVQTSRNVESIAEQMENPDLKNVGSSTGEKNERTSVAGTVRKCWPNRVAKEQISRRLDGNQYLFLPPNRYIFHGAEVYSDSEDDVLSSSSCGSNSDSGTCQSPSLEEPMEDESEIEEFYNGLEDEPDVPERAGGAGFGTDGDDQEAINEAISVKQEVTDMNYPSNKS
# Test: mass spectrometry based SIRT1 deacetylation assay (activation)
# Type: biochemical
# Conditions: 0.5 μM peptide substrate, 120 μM βNAD+, 10 nM SIRT1, 25 min at 25° C.; for EC1.5 (concentration of test compound that results in 150% activation of SIRT1): NA = not active in the assay; for Emax: read-out: % FOLD ACT. (percent maximum fold activation of SIRT1)
Structure (SMILES),EC1.5 (concentration of test compound that results in 150% activation of SIRT1) [NM],Emax [%]
COCCN1CCN(Cc2cnc3sc(-c4ccccc4NC(=O)c4cccc(-c5cccc(C(F)(F)F)c5)n4)nc3c2)CC1 [Compound 140],41,500
COCCN1CCN(Cc2cnc3sc(-c4ccccc4NC(=O)c4cccc(-c5ccc(F)cc5)n4)nc3c2)CC1 [Compound 141],127,487
COCCN1CCN(Cc2cnc3sc(-c4ccccc4NC(=O)c4cccc(-c5ccc(F)cc5F)n4)nc3c2)CC1 [Compound 142],394,378
COCCN1CCN(Cc2cnc3sc(-c4ccccc4NC(=O)c4cccc(-c5cccc(F)c5F)n4)nc3c2)CC1 [Compound 146],127,500
COCCN1CCN(Cc2cnc3sc(-c4ccccc4NC(=O)c4cccc(-c5cccc(C#N)c5)n4)nc3c2)CC1 [Compound 148],40,500
Cn1cc(-c2ccccc2)cc1C(=O)Nc1ccccc1-c1nc2cc(CN3CCOCC3)cnc2s1 [Compound 150],67,267
COCCN1CCN(Cc2cnc3sc(-c4ccccc4NC(=O)c4cc(-c5ccccc5)n[nH]4)nc3c2)CC1 [Compound 152],321,> 500
O=C(Nc1ccccc1-c1nc2cc(CN3CCCC3)cnc2s1)c1ccn(-c2ccccc2)n1 [Compound 154],428,277
COCCN1CCN(Cc2cnc3sc(-c4ccccc4NC(=O)c4ccn(-c5ccccc5)n4)nc3c2)CC1 [Compound 155],141,364

# Results, then the compound that gave them:
EC1.5 (concentration of test compound that results in 150% activation of SIRT1) [NM],Emax [%],Structure (SMILES)
2121,372,COCCN1CCN(Cc2cnc3sc(-c4ccccc4NC(=O)c4cccc(-c5ccccc5C#N)n4)nc3c2)CC1 [Compound 143]
559,402,COCCN1CCN(Cc2cnc3sc(-c4ccccc4NC(=O)c4cccc(-c5ccc(C#N)cc5)n4)nc3c2)CC1 [Compound 144]
86,500,COCCN1CCN(Cc2cnc3sc(-c4ccccc4NC(=O)c4cccc(-c5cc(F)ccc5F)n4)nc3c2)CC1 [Compound 145]
845,224,[2H]c1c([2H])c([2H])c(-c2cccc(C(=O)Nc3ccccc3-c3nc4cc(CN5CCCC5)cnc4s3)c2)c([2H])c1[2H] [Compound 147]
557,216,O=C(Nc1ccccc1-c1nc2cc(CN3CCCC3=O)cnc2s1)c1cccc(-c2ccccc2)c1 [Compound 149]
591,170,Cn1cc(-c2ccccc2)cc1C(=O)Nc1ccccc1-c1nc2cc(CN3CCCC3)cnc2s1 [Compound 151]
829,226,O=C(Nc1ccccc1-c1nc2cc(CN3CCCC3)cnc2s1)c1cc(-c2ccccc2)n[nH]1 [Compound 153]
674,443,O=C(Nc1ccccc1-c1nc2cc(CN3CCOCC3)cnc2s1)c1ccn(-c2ccccc2)n1 [Compound 156]
